Values joined by “and” are separate entries in the source; they are usually repeats but may differ in a detail not shown here. Equal values may be shown once.
Tests used:
[1] = for mass density: 298.15 K, 101.33 kPa, mass/volume ratio of a pellet; for Normal melting temperature: DTA
[2] = Molar enthalpy of transition or fusion; conditions: Crystal; DSC
[3] = molar enthalpy of vaporization or sublimation; conditions: 298.15 K; Crystal; Static calorimetry

OCC1c2ccccc2-c2ccccc21 [9-fluorenemethanol]
[1], Crystal
Conditions	Normal melting temperature [°C]	mass density [kg/m3]
–	103.92	1084

[1]
Conditions	vapor or sublimation pressure
337.18 K, Crystal, Calculated from knudsen effusion weight loss	9.2e-05 kPa and 9e-05 kPa
339.17 K, Crystal, Calculated from knudsen effusion weight loss	0.000119 kPa and 0.000117 kPa and 0.000115 kPa
341.1 K, Crystal, Calculated from knudsen effusion weight loss	0.00015 kPa and 0.000147 kPa
343.17 K, Crystal, Calculated from knudsen effusion weight loss	0.00019 kPa and 0.000187 kPa and 0.000197 kPa
345.21 K, Crystal, Calculated from knudsen effusion weight loss	0.000247 kPa and 0.000239 kPa and 0.000243 kPa
347.13 K, Crystal, Calculated from knudsen effusion weight loss	0.000306 kPa and 0.000303 kPa and 0.000302 kPa
349.16 K, Crystal, Calculated from knudsen effusion weight loss	0.00038 kPa and 0.000381 kPa and 0.00039 kPa
351.22 K, Crystal, Calculated from knudsen effusion weight loss	0.000493 kPa and 0.000476 kPa and 0.000488 kPa
353.14 K, Crystal, Calculated from knudsen effusion weight loss	0.000611 kPa and 0.000602 kPa and 0.000607 kPa
355.17 K, Crystal, Calculated from knudsen effusion weight loss	0.000748 kPa and 0.000739 kPa and 0.000772 kPa
357.16 K, Crystal, Calculated from knudsen effusion weight loss	0.00095 kPa and 0.000955 kPa and 0.000923 kPa
359.1 K, Crystal, Calculated from knudsen effusion weight loss	0.00118 kPa and 0.001184 kPa and 0.001169 kPa
362.69 K, Liquid, Closed cell (Static) method	0.00242 kPa
364.67 K, Liquid, Closed cell (Static) method	0.00285 kPa
366.66 K, Liquid, Closed cell (Static) method	0.00333 kPa
368.63 K, Liquid, Closed cell (Static) method	0.00391 kPa
370.62 K, Liquid, Closed cell (Static) method	0.00456 kPa
372.6 K, Liquid, Closed cell (Static) method	0.00529 kPa
374.57 K, Liquid, Closed cell (Static) method	0.00615 kPa
376.56 K, Liquid, Closed cell (Static) method	0.00711 kPa
378.53 K, Liquid, Closed cell (Static) method	0.00817 kPa
380.52 K, Liquid, Closed cell (Static) method	0.00947 kPa
382.5 K, Liquid, Closed cell (Static) method	0.01089 kPa
384.49 K, Liquid, Closed cell (Static) method	0.01253 kPa
386.47 K, Liquid, Closed cell (Static) method	0.0143 kPa
388.43 K, Liquid, Closed cell (Static) method	0.01639 kPa
390.43 K, Liquid, Closed cell (Static) method	0.0188 kPa
392.39 K, Liquid, Closed cell (Static) method	0.02137 kPa
394.37 K, Liquid, Closed cell (Static) method	0.02432 kPa
396.35 K, Liquid, Closed cell (Static) method	0.02764 kPa
398.32 K, Liquid, Closed cell (Static) method	0.03131 kPa
400.3 K, Liquid, Closed cell (Static) method	0.03556 kPa

Conditions	Molar enthalpy of transition or fusion [kcal/mol]
[2]	6.67

O=C(O)C1c2ccccc2-c2ccccc21 [9H-fluorene-9-carboxylic acid]
[1], Crystal
Conditions	Normal melting temperature [°C]	mass density [kg/m3]
–	230.68	1164

[1], Crystal, Calculated from knudsen effusion weight loss
Conditions	vapor or sublimation pressure [kPa]
384.16 K	0.000139
386.13 K	0.000171
388.15 K	0.000211
392.14 K	0.000307
394.15 K	0.000378
396.15 K	0.000474
398.15 K	0.000558
400.13 K	0.000689
402.14 K	0.000811
404.15 K	0.000994
406.16 K	0.001182

Conditions	Molar enthalpy of transition or fusion [kcal/mol]	molar enthalpy [kcal/mol]
[2]	7.23	–
[3]	–	30.4

Source: the NIST ThermoML archive (doi:10.1016/j.jct.2013.03.005)
